We go through five molecules from patent US5053416A, “Derivatives of 1,2,5,6-tetrahydropyridine substituted by a thiazolyl or oxazolyl radical, their use as medicaments and compositions containing them” (Roussel Uclaf, priority 1988, dated 1991).

Like-named read-outs stand apart in the source and are kept apart here.

A short description of data set [1]: in vivo. The settings on record: mouse, male mice, oral route, mortality during 7 days following treatment.
Experimental: The test is carried out on male mice (CD1 Charles Rivers) of 22 to 24 g, without food for 16 hours. […] The mortality is noted during the 7 days following treatment.
Data set [2] relates to male mice (CD1 Charles Rivers). Briefly: Hypothermic activity (rectal body temperature). The format is in vivo. The settings on record: Mus musculus; for ED (1 C fall in body temperature): sc, read-out: Effective dose (-1° C.) SC.R.; for ED (-1 C): read-out: Effective dose (-1° C.) O.R.
Experimental: The test is carried out on male mice (CD1 Charles Rivers) weighing 25 to 30 g, without food for 6 hours.
The body temperature is noted by means of a thermocouple placed about 1.5 cm inside the rectum and connected to an electric temperature recorder.
The products are administered by oral or sub-cutaneous route and the temperatures are noted at 0 and 30 minutes, one hour, 2 hours and 2 hours 30 minutes after treatment.
The degree of hypothermia is evaluated as the difference between the treated animals and the controls and the dose necessary to reduce the body temperature by 1° C. is determined.
Data set [3] relates to isolated ileum of a guinea-pig. Kind of data set: Test on the isolated ileum of a guinea-pig (contraction, agonist activity). The settings on record: Cavia porcellus, read-out: pD2 (converted).
Experimental: Fragments of the ileum of guinea-pigs killed by decapitation are removed. […] The contractions caused by the products are recorded using a sensor connected to a polygraph. The products under test are added, at concentrations comprised between 1.10^-3 M and 1.10^-8 M/l.
The products presenting a contracting effect are tested vis-a-vis atropine and hexamethonium to establish if the activity is of "muscarinic" or "nicotinic" type.
The possible antagonist activity of the products is tested vis-a-vis acetylcholine.
The agonist activity is expressed in pD2 (negative logarithm of the dose which produces 50% of the maximum effect).
For data set [4], the system named is male mice (CD1 Charles Rivers). Briefly: Diarrhoeic activity, oral. The conditions noted are these: for ED50: Mus musculus, po, read-out: DE50.
Experimental: The test is carried out on male mice (CD1 Charles Rivers) weighing 25 to 30 g, without food for 6 hours. The product at 5% in methocel is administered by oral route, by means of an oesophagus probe.
Control animals receive only the excipient.
The sheets of absorbent paper are changed after each observation.
1: slightly soft faeces with or without moist circle,
2: slightly soft faeces with presence of a well-defined moist circle,
3: soft faeces with presence of a large moist circle,
4: faeces without consistency with presence of a very large moist circle.
The mark [5] stands for this setting: sub-cutaneous route, dose necessary to reduce the body temperature by 1° C.
The mark [6] stands for this setting: oral route, dose necessary to reduce the body temperature by 1° C.
The mark [7] stands for this setting: negative logarithm of the dose which produces 50% of the maximum effect, Tyrode's solution at 37° C.

As a reminder, the LD50 is the dose expected to kill half of the subjects tested. Low readings indicate a more toxic substance, high ones a less toxic substance. `Cc1cnc(C2=CCCNC2)o1.Cl` [Example 8, 3-(5-methyloxazol-2-yl)-1,2,5,6-tetrahydropyridine hydrochloride]: in data set [1], the LD50 at 168 h was found to be 500 mg/kg. Moreover, in data set [2] (setting [5]), the ED (1 C fall in body temperature) turned out to be 25 mg/kg. Also, the ED (-1 C) in data set [2] (setting [6]) was 24 mg/kg. For the same molecule, in data set [3] (setting [7]), the EC50 was 5890 nM.
On to `Cc1coc(C2=CCCNC2)n1.Cl` [Example 2, 3-(4-methyloxazol-2-yl)-1,2,5,6-tetrahydropyridine hydrochloride], for which the ED50 in data set [4] is 3 mg/kg. Besides, the LD50 at 168 h in data set [1] came out at 125 mg/kg. Moreover, the ED (1 C fall in body temperature) in data set [2] (setting [5]) was found to be 1.7 mg/kg. For the same molecule, the ED (-1 C) in data set [2] (setting [6]) was found to be 2.6 mg/kg. For the same molecule, the EC50 in data set [3] (setting [7]) was 1070 nM.
As to `COC(=O)C1=CCCN(C)C1` [Aerocoline, HBr, reference compound], the DE50 in data set [4] (male mice, oral route, dose which causes diarrhoea in 50% of the animals) was 35 mg/kg. The ED (-1 C) in data set [2] (po) was 194 mg/kg. Besides, the ED (1 C fall in body temperature) in data set [2] was determined as 3 mg/kg. In addition, the EC50 in data set [3] is 331 nM.
In the case of `C1=C(c2ncco2)CNCC1.Cl` [Example 6, 3-(oxazol-2-yl)-1,2,5,6-tetrahydropyridine hydrochloride], the ED50 in data set [4] was 15 mg/kg. Further, the LD50 at 168 h in data set [1] came to 200 mg/kg. Further, the ED (1 C fall in body temperature) in data set [2] (setting [5]) worked out at 3.2 mg/kg. In addition, the ED (-1 C) in data set [2] (setting [6]) is 3.2 mg/kg. For the same molecule, in data set [3] (setting [7]), the EC50 is 1950 nM.
As to `ON1CCC=C(c2ncco2)C1` [Example 10, 1-hydroxy-3-(oxazol-2-yl)-1,2,5,6-tetrahydropyridine], the ED50 in data set [4] turned out to be 10 mg/kg. In data set [1], this molecule came in with an LD50 at 168 h of 300 mg/kg. The ED (1 C fall in body temperature) in data set [2] (setting [5]) was 4.1 mg/kg. Besides, in data set [2] (setting [6]), the ED (-1 C) came to 4.2 mg/kg. For the same molecule, in data set [3] (setting [7]), the EC50 is greater than 100000 nM.
